Assays:
[1] = test system: DSS induced acute ulcerative colitis model in C57 mice; experiment: DSS induced acute ulcerative colitis in C57 mice (body weight, DAI, colon length, H&E pathology); assay type: in vivo; conditions: for colon length recovery rate (inhibition of colon shortening) / recovery rate of colon pathological sections (H&E) / body weight recovery rate / DAI score inhibition ratio: gavage once a day; for body weight recovery rate / DAI score inhibition ratio: day 7
Experimental: (§1) Except for the normal group, all other groups of mice were allowed to freely drink a 3% DSS solution which was freshly prepared and replaced the next day (wherein the 3% DSS solution was prepared by weighing 3 g of a DSS powder (from MP Biomedicals, USA with a molecular weight of 36,000 to 50,000) and fully dissolving it in 100 mL of the drinking water for the mice); whereas the normal group was given blank drinking water; the control group mice drank water normally for 7 days, while the DSS group mice drank the 3% DSS solution freely for 7 days and were administrated for 6 days from the second day DSS was given. The mice were administered by gavage once a day with a volume of 10 mL/kg, wherein the normal control group and DSS group were gavaged with a solvent of 0.5% CMC-Na (wherein a 0.5% CMC-Na solution is at a concentration of 0.5 g/100 mL, the same below), while the other groups were separately gavaged with drugs dissolved in 0.5% CMC-Na.
The normal control group mice were vivacious with glossy fur, stable weight gain, and normal stools appearing elliptical or spindle shaped.
In order to further evaluate the disease development for each group of acute UC mice, we performed DAI scoring on the loose and bloody stools etc. for each mouse (see panel B1 in FIG. 3). […] As the experiment progressed, the disease became gradually worsened, with some animals experiencing severe bloody stools and significant emaciation.
(§2) After dissection, the colon of each mouse was taken and the length of the colon was measured separately.

[2] = test system: chronic ulcerative colitis model in IL-10 whole gene knockout mice; experiment: chronic ulcerative colitis in IL-10 whole gene knockout mice (survival, body weight, colon length, H&E pathology); assay type: in vivo
Experimental: (§3) Ten C57 mice (aged 10-12 weeks, around 20 g) with an identified genotype of Wildtype were taken as the normal control group. […] The mice were administered by gavage once a day with a volume of 10 mL/kg, wherein the normal control group and DSS group were gavaged with a solvent of 0.5% CMC-Na while the other groups were separately gavaged with drugs dissolved in 0.5% CMC-Na.
as §2

[3] = test system: IL-6; experiment: colon tissue IL-6 mRNA by qPCR, DSS acute UC mice; assay type: in vivo; conditions: 10 mg/kg
Experimental: as §1
(§4) After dissection, a segment of the colon was taken from the same part of each mouse, total RNAs were extracted from tissues, and mRNA expressions of such inflammatory factors as TNF-α, IL-1β, IL-6, and IL-23 in colon tissues of the mice were detected through qPCR.

[4] = test system: IL-1β; experiment: colon tissue IL-1β mRNA by qPCR, DSS acute UC mice; assay type: in vivo; conditions: 10 mg/kg
Experimental: as §1, §4

[5] = test system: IL-1β; experiment: serum IL-1β protein by ELISA, DSS acute UC mice; assay type: in vivo; conditions: 10 mg/kg
Experimental: as §1

[6] = test system: IL-23; experiment: colon tissue IL-23 mRNA by qPCR, DSS acute UC mice; assay type: in vivo; conditions: 10 mg/kg
Experimental: as §1, §4

[7] = test system: TNF-α; experiment: colon tissue TNF-α mRNA by qPCR, DSS acute UC mice; assay type: in vivo; conditions: 10 mg/kg
Experimental: as §1, §4

[8] = test system: IL-6; experiment: serum IL-6 protein by ELISA, DSS acute UC mice; assay type: in vivo; conditions: 10 mg/kg
Experimental: as §1
(§5) To investigate the effects of compounds (R)-STU104, (S)-STU104, and (±)-STU104 on the secretion of such inflammatory factors as TNF-α, IL-1β, IL-6, and IL-23 by mice of the DSS induced acute ulcerative colitis model in C57 mice, we isolated serum after blood acquisition and detected the contents of such inflammatory factors as TNF-α, IL-1β, IL-6, and IL-23 in the serum of mice using ELISA.

[9] = test system: TNF-α; experiment: serum TNF-α protein by ELISA, DSS acute UC mice; assay type: in vivo; conditions: 10 mg/kg
Experimental: as §1, §5

[10] = test system: IL-23; experiment: serum IL-23 protein by ELISA, DSS acute UC mice; assay type: in vivo; conditions: 10 mg/kg
Experimental: as §1, §5

[11] = test system: TNF-α; experiment: release of the inflammatory factor TNF-α by LPS induced macrophages (RAW264.7), RT-PCR; assay type: cell-based; conditions: Mus musculus, RAW264.7, LPS 1 μg/ml, 24 hours, read-out: IC50 with respect to the release of the inflammatory factor TNF-α
Experimental: LPS (1 μg/ml) and different concentrations of (±)-STU104 or (R)-STU104 (0.1 to 50 μM) were added respectively after the cells grew to a fused state, and incubated together at 37° C. under 5% CO2 for 24 hours. A blank control group was established, and RT-PCR was employed to detect the inhibition states of TNF-α in cells by these compounds.

[12] = test system: IL-6; experiment: serum IL-6 protein by ELISA, IL-10 knockout chronic UC mice; assay type: in vivo
Experimental: as §3
(§6) To investigate the effects of (R)-STU104 on the secretion of such inflammatory factors as TNF-α, IL-1β, IL-6, and IL-23 by spontaneous IBD mice due to IL-10 knockout, we isolated serum after blood acquisition and detected the contents of such inflammatory factors as TNF-α, IL-1β, IL-6, and IL-23 in the serum of mice using ELISA.

[13] = test system: IL-1β; experiment: serum IL-1β protein by ELISA, IL-10 knockout chronic UC mice; assay type: in vivo
Experimental: as §3, §6

[14] = test system: IL-1β; experiment: colon tissue IL-1β mRNA by qPCR, IL-10 knockout chronic UC mice; assay type: in vivo
Experimental: as §3, §4

[15] = test system: TAK1; experiment: western blotting of TAK1 phosphorylation (upstream kinase of MKK3); assay type: cell-based
From the text: (§7) To further clarify the inhibitory mechanism of (R)-STU104 on TNF-α release, we detected the effects of (R)-STU104 on phosphorylation levels of proteins related to the p38 signaling pathway (see FIG. 2). The p38 inhibitor (SB203580) was used as a positive control, and western blotting was used to detect protein expression levels.

[16] = test system: TNF-α; experiment: serum TNF-α protein by ELISA, IL-10 knockout chronic UC mice; assay type: in vivo
Experimental: as §3, §6

[17] = test system: IL-23; experiment: colon tissue IL-23 mRNA by qPCR, IL-10 knockout chronic UC mice; assay type: in vivo
Experimental: as §3, §4

[18] = test system: IL-23; experiment: serum IL-23 protein by ELISA, IL-10 knockout chronic UC mice; assay type: in vivo
Experimental: as §3, §6

[19] = test system: TNF-α; experiment: colon tissue TNF-α mRNA by qPCR, IL-10 knockout chronic UC mice; assay type: in vivo
Experimental: as §3, §4

[20] = test system: IL-6; experiment: colon tissue IL-6 mRNA by qPCR, IL-10 knockout chronic UC mice; assay type: in vivo
Experimental: as §3, §4

[21] = test system: Mnk1, MK2, and elF4E in the p38 signaling pathway; experiment: western blotting of phosphorylation of p38 signaling pathway proteins in LPS induced RAW264.7 cells; assay type: cell-based; conditions: RAW264.7, 3.125, 6.25 and 12.5 μM, LPS 500 μg/L
From the text: as §7

[22] = positive drug group, dose not given

Nc1ccc(O)c(C(=O)O)c1 [mesalazine, reference compound]
colon length recovery rate (inhibition of colon shortening) ([1]; 50 mg/kg): 26.4%
recovery rate of colon pathological sections (H&E) ([1]; 50 mg/kg): 38.0%
body weight recovery rate ([1]; 50 mg/kg): 7%
recovery rate of colon pathological sections (H&E) [2, 22]: 44.3%
total mortality rate [2, 22]: no deaths occurred

COc1ccc([C@@H]2CC(=O)c3cc(OC)cc(OC)c32)cc1 [(S)-STU104]
inhibition ratio of IL-6 mRNA in colon tissues [3]: 8.1%
inhibition ratio of IL-1β mRNA in colon tissues [4]: 27.7%
improvement of acute UC symptoms ([1]; 10 mg/kg, compared with mesalazine 50 mg/kg): significantly lower than that in the mesalazine group
colon length recovery rate (inhibition of colon shortening) ([1]; 10 mg/kg): 14.5%
recovery rate of colon pathological sections (H&E) ([1]; 10 mg/kg): 13.9%
inhibition ratio of IL-1β protein content in serum [5]: 18.1%
inhibition ratio of IL-23 mRNA in colon tissues [6]: 10.6%
inhibition ratio of TNF-α mRNA in colon tissues [7]: 22.0%
inhibition ratio of IL-6 protein content in serum [8]: 32.6%
inhibition ratio of TNF-α protein content in serum [9]: 10.2%
inhibition ratio of IL-23 protein content in serum [10]: 18.9%

COc1ccc([C@H]2CC(=O)c3cc(OC)cc(OC)c32)cc1 [(R)-STU104, 4,6-dimethoxy-3R-(4-methoxyphenyl)-2,3-dihydro-1H-indanone]
inhibition ratio of IL-6 mRNA in colon tissues [3]: 65.0%
IC50 [11]: 0.58 µM
inhibition ratio of IL-6 protein content in serum ([12]; high dose (10 mg/kg)): 57.6%
inhibition ratio of IL-6 protein content in serum ([12]; low dose (1 mg/kg)): 34.4%
inhibition ratio of IL-6 protein content in serum ([12]; medium dose (3 mg/kg)): 44.5%
inhibition ratio of IL-1β protein content in serum ([13]; high dose (10 mg/kg)): 51.8%
inhibition ratio of IL-1β protein content in serum ([13]; low dose (1 mg/kg)): 40.1%
inhibition ratio of IL-1β protein content in serum ([13]; medium dose (3 mg/kg)): 50.0%
inhibition ratio of IL-1β mRNA in colon tissues ([14]; high dose (10 mg/kg)): 43.8%
inhibition ratio of IL-1β mRNA in colon tissues ([14]; low dose (1 mg/kg)): 22.8%
inhibition ratio of IL-1β mRNA in colon tissues ([14]; medium dose (3 mg/kg)): 36.1%
phosphorylation of TAK1 [15]: no inhibition
inhibition ratio of TNF-α protein content in serum ([16]; high dose (10 mg/kg)): 61.9%
inhibition ratio of TNF-α protein content in serum ([16]; low dose (1 mg/kg)): 40.2%
inhibition ratio of TNF-α protein content in serum ([16]; medium dose (3 mg/kg)): 60.3%
inhibition ratio of IL-23 mRNA in colon tissues ([17]; high dose (10 mg/kg)): 58.2%
inhibition ratio of IL-23 mRNA in colon tissues ([17]; low dose (1 mg/kg)): 31.0%
inhibition ratio of IL-23 mRNA in colon tissues ([17]; medium dose (3 mg/kg)): 51.7%
inhibition ratio of IL-1β mRNA in colon tissues [4]: 68.3%
colon length recovery rate (inhibition of colon shortening) ([1]; 10 mg/kg): 34.6%
recovery rate of colon pathological sections (H&E) ([1]; 10 mg/kg): 65.6%
DAI score inhibition ratio ([1]; 10 mg/kg): 29.3%
body weight recovery rate ([1]; 10 mg/kg): 22.4%
efficiency of weight gain (body weight recovery) ([2]; high-dose group (10 mg/kg)): 19.4%
inhibition ratio of colon shortening ([2]; high-dose group (10 mg/kg)): 41.2%
recovery rate of colon pathological sections (H&E) ([2]; high-dose group (10 mg/kg)): 56.7%
total mortality rate ([2]; high-dose group (10 mg/kg), gavage once a day): no deaths occurred
efficiency of weight gain (body weight recovery) ([2]; low-dose group (1 mg/kg)): 13.6%
inhibition ratio of colon shortening ([2]; low-dose group (1 mg/kg)): 17.7%
recovery rate of colon pathological sections (H&E) ([2]; low-dose group (1 mg/kg)): 33.0%
total mortality rate ([2]; low-dose group (1 mg/kg), gavage once a day): 20%
efficiency of weight gain (body weight recovery) ([2]; medium-dose group (3 mg/kg)): 14.8%
inhibition ratio of colon shortening ([2]; medium-dose group (3 mg/kg)): 29.4%
recovery rate of colon pathological sections (H&E) ([2]; medium-dose group (3 mg/kg)): 50.5%
total mortality rate ([2]; medium-dose group (3 mg/kg), gavage once a day): no deaths occurred
inhibition ratio of IL-23 protein content in serum ([18]; high dose (10 mg/kg)): 64.4%
inhibition ratio of IL-23 protein content in serum ([18]; low dose (1 mg/kg)): 39.6%
inhibition ratio of IL-23 protein content in serum ([18]; medium dose (3 mg/kg)): 58.2%
inhibition ratio of IL-1β protein content in serum [5]: 70.1%
inhibition ratio of TNF-α mRNA in colon tissues ([19]; high dose (10 mg/kg)): 68.5%
inhibition ratio of TNF-α mRNA in colon tissues ([19]; low dose (1 mg/kg)): 24.7%
inhibition ratio of TNF-α mRNA in colon tissues ([19]; medium dose (3 mg/kg)): 69.5%
inhibition ratio of IL-23 mRNA in colon tissues [6]: 84.8%
inhibition ratio of TNF-α mRNA in colon tissues [7]: 64.8%
inhibition ratio of IL-6 protein content in serum [8]: 71.5%
inhibition ratio of IL-6 mRNA in colon tissues ([20]; high dose (10 mg/kg)): 48.6%
inhibition ratio of IL-6 mRNA in colon tissues ([20]; low dose (1 mg/kg)): 26.3%
inhibition ratio of IL-6 mRNA in colon tissues ([20]; medium dose (3 mg/kg)): 37.1%
inhibition ratio of TNF-α protein content in serum [9]: 55.4%
inhibition ratio of IL-23 protein content in serum [10]: 56.7%
phosphorylation of key proteins Mnk1, MK2, and elF4E in the p38 signaling pathway [21]: inhibiting, in a concentration dependent manner

COc1ccc(C2CC(=O)c3cc(OC)cc(OC)c32)cc1 (racemic) [(±)-STU104]
inhibition ratio of IL-6 mRNA in colon tissues [3]: 56.1%
IC50 [11]: 1.27 µM
inhibition ratio of IL-1β mRNA in colon tissues [4]: 67.5%
colon length recovery rate (inhibition of colon shortening) ([1]; 10 mg/kg): 25.7%
recovery rate of colon pathological sections (H&E) ([1]; 10 mg/kg): 48.3%
DAI score inhibition ratio ([1]; 10 mg/kg): 8.3%
body weight recovery rate ([1]; 10 mg/kg): 20.0%
inhibition ratio of IL-1β protein content in serum [5]: 68.6%
inhibition ratio of IL-23 mRNA in colon tissues [6]: 73.1%
inhibition ratio of TNF-α mRNA in colon tissues [7]: 55.4%
inhibition ratio of IL-6 protein content in serum [8]: 49.1%
inhibition ratio of TNF-α protein content in serum [9]: 48.1%
inhibition ratio of IL-23 protein content in serum [10]: 45.2%

Reference: patent publication US20240285551A1, “A SMALL MOLECULE TNF-a INHIBITOR AND PREPARATION METHOD AND USE THEREOF” (FUDAN UNIVERSITY, priority 2021, published 2024)
